Test results reported in PMC9369311, “Examination of Intracellular GPCR-Mediated Signaling with High Temporal Resolution” (International Journal of Molecular Sciences, 2022).
“And” between values parts separate entries of the source, which are not always exact repeats. Equal entries are not always repeated.

Target: T1, DmOctα1B receptor (Drosophila melanogaster, UniProt Q7JQF1)
T1 construct: expressed in transfected cells
T1 sequence (Q7JQF1 1-645): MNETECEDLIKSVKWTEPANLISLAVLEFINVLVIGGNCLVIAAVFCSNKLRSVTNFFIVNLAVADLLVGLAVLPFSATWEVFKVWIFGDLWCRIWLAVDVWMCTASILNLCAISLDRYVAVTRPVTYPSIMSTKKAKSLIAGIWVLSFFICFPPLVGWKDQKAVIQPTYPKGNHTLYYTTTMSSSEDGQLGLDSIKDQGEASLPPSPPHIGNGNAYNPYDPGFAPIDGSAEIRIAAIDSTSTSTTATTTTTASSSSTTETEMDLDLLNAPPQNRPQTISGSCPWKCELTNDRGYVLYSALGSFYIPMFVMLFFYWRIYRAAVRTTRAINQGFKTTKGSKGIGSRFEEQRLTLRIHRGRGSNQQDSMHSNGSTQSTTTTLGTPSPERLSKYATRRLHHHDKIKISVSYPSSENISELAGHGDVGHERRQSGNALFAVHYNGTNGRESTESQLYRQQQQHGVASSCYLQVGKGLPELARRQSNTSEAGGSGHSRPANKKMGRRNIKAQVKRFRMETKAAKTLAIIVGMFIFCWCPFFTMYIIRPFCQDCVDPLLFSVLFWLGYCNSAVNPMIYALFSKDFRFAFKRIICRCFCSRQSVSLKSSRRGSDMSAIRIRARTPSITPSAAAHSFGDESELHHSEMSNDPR
Test: Stopped-flow Ca2+ fluorescence measurements, DmOctα1B-expressing HEK293 cells
Type: cell-based
Details: for response time: Fluo-4 or GCaMP3.0
Procedure: As described for the fluorimetric measurements performed in 96 well plates, the stimulation of the DmOctα1B receptors with octopamine results in an efflux of Ca^2+ from the intracellular stores, which was now analyzed by stopped-flow experiments with high temporal resolution. The cells loaded with Fluo-4 or constitutively expressing GCaMP3.0 were diluted in extracellular solution (ES) to a density of 1 × 10^6 cells/mL prior to application to the stopped-flow system. The cells were mixed with increasing ligand concentrations and the fluorescence signals were monitored for 40 s (Figure 3). The increasing ligand concentrations lead to a rise in the fluorescence intensities. The initial Ca^2+ responses were detected at 1 nM octopamine and saturated at ligand concentrations ≥ 30 nM. After reaching a maximum, the fluorescence intensities decreased (Figure 3A1). This effect was more pronounced for concentrations ≤ 30 nM. In the cells expressing GCaMP3.0 (DmOctα1B-GCaMP3.0), additional increases in Ca^2+ were resolved (Figure 3B1), probably monitoring the Ca^2+ oscillations that are known to be induced upon DmOctα1B activation. To determine the ligand affinities for the receptor, the maximal fluorescence intensities were plotted against the octopamine concentrations. […] The EC50 values were obtained from nonlinear fitting of the data, using GraphPad Prism v5.04. […] Besides the determination of the EC50 values, information about reaction velocities could be gained when analyzing the first 4 s of the measurements. The increasing octopamine concentrations correlated with faster signal detection (Figure 3A2,B2). […] The reaction velocities in a concentration range from 3 nM to 300 nM octopamine were almost identical for the Fluo-4-loaded and the GCaMP3.0-expressing cells.
For the stopped-flow measurements, the SFM-400 system (BioLogic, Münster, Germany) was used. The main component of the stopped-flow setup is the SFM-400 module with four 10 mL syringes, which can be filled by external valves. The syringes are driven by step motors. The reactants can be mixed in three individual mixing chambers (M1–M3). The volume between M1 and M2 is 21 µL, and 31 µL between M2 and M3. The observation chamber is a quartz cuvette (FC-15) with a reaction volume of 31 µL, installed behind M3. To avoid fluctuations of the reaction mixture in the cuvette, which might lead to noisy and inconsistent signals, a hard stop valve located behind the cuvette can be closed after injection of the reactants. The stopped-flow module is controlled via a MPS-60 control unit (BioLogic). Data acquisition and operation of the system were performed with the Bio-Kine 32 v4.74 software (BioLogic).
The reactions in the cuvette were analyzed via the changes in the fluorescence. A 150 W Xe/Hg-lamp (ALX-220; BioLogic) was used as a light source for the excitation. The excitation light was guided via a light guide towards the cuvette. To determine the wavelength of the excitation light, a 482 nm bandpass filter (482/35 nm BrightLine® single-band bandpass filter; Semrock, Rochester, NY, USA) was used. A heat protection filter (3 mm; KG1, Schott; Mainz, Germany) was placed between the Xe/Hg-lamp and the excitation filter. The fluorescence was detected with a photomultiplier (PMS 200, BioLogic) installed rectangularly to the light path of the excitation light. Between the cuvette and the photomultiplier tube a 535 nm bandpass emission filter (XF3007 535AF35; Horiba, Oberursel, Germany) was placed to select for the emission light being detected by the photomultiplier. A voltage of 600 V was applied to the photomultiplier.
The fluorescence measurements were performed either directly with the cells expressing GCaMP3.0 or after loading the cells with Fluo-4-AM. Changes in the intracellular Ca^2+ were induced by stimulating the cells with a concentration series of different ligands. In the stopped-flow module, four different solutions can be mixed. […]

response time (low ligand concentrations ≤ 3 nM (1 nM elsewhere in the source)): ~ 2 s and 2 s
Signal Response Time (saturating concentration, DmOctα1B cells loaded with Fluo-4, mean ± SEM): 0.35 ± 0.04 s
Signal Response Time (saturating concentration, DmOctα1B-GCaMP3.0 cells, mean ± SEM): 0.36 ± 0.05 s
Signal Response Time (saturating ligand concentration, DmOctα1B cell lines, Fluo-4 and GCaMP3.0): 0.35 s
response time (saturating octopamine concentrations (≥30 nM; 300 nM)): ~ 300 ms and ≈ 350 ms
concentration at which initial Ca2+ responses were detected (stopped-flow, DmOctα1B cells): 1 nM
ligand concentration at which Ca2+ responses saturated (stopped-flow, DmOctα1B cells): ≥ 30 nM
EC50 (stopped-flow, DmOctα1B cells loaded with Fluo-4, mean ± SEM): 2.25 nM and 2.3 nM
EC50 (stopped-flow, DmOctα1B-GCaMP3.0 cells, mean ± SEM): 1.7 ± 0.1 nM
SMILES: NCC(O)c1ccc(O)cc1 (stereo not drawn) [octopamine]
